Source: ChEMBL document CHEMBL1201862, “PubChem BioAssay data set” (2004)
Calls of active or inactive are those of the source.

How the values were obtained:
[1] = molecular target: T1, Apoptotic protease-activating factor 1 (Homo sapiens, UniProt O14727); assay: SAR analysis of small molecule inhibitors of Apaf-1 in a Fluorescent assay.; type: functional; conditions: read-out: IC50_Mean
T1 sequence (O14727 whole entry): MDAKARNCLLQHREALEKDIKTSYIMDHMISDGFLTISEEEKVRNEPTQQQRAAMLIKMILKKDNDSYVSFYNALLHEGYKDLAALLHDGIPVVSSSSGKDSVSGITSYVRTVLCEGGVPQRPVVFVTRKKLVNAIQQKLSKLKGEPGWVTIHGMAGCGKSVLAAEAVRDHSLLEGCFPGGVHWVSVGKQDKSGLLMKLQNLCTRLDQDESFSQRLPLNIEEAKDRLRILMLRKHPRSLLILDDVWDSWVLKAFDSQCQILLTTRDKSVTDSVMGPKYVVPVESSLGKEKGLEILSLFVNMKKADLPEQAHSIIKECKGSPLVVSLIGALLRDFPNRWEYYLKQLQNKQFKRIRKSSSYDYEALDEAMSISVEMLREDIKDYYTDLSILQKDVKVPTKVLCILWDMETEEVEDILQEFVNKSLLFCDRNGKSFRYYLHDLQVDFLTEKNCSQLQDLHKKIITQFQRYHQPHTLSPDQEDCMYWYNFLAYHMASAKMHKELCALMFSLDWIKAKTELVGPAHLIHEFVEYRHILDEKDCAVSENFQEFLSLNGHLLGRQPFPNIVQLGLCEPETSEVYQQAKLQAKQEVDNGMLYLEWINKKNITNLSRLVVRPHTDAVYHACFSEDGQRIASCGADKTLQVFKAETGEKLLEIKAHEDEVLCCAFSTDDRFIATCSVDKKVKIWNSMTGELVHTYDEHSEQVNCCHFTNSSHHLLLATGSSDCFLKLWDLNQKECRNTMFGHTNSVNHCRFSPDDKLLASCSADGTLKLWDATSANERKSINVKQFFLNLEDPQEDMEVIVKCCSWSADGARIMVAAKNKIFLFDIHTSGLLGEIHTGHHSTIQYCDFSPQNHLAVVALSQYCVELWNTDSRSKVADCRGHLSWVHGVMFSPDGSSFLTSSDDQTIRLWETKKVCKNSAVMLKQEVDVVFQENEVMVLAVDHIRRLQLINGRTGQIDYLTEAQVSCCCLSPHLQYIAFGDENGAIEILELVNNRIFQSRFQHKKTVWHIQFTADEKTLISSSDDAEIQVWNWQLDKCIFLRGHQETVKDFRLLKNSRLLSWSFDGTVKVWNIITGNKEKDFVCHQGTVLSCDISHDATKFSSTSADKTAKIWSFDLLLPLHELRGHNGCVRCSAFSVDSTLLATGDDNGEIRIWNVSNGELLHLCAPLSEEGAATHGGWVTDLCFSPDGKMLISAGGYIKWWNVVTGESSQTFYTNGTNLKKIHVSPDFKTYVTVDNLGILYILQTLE

[2] = molecular target: Tyrosine-protein kinase Fyn (Homo sapiens, UniProt P06241); type: functional
[3] = molecular target: ALK tyrosine kinase receptor (Homo sapiens, UniProt Q9UM73); type: functional;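 note: ALK tested as one member of a kinase panel screen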
[4] = molecular target: Tyrosine-protein kinase Lck (Homo sapiens, UniProt P06239); type: functional;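 note: lck was assayed as one member of a kinase panel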
[5] = molecular target: Calcium/calmodulin-dependent protein kinase type II subunit alpha (Homo sapiens, UniProt Q9UQM7); assay: Navigating the Kinome. Panel member name: CAMK2A; type: functional
[6] = molecular target: Tyrosine-protein kinase BTK (Homo sapiens, UniProt Q06187); type: functional
[7] = molecular target: Mitogen-activated protein kinase 14 (Homo sapiens, UniProt Q16539); type: functional;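 note: part of a kinome-wide panel, MAPK14 entry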
[8] = molecular target: T2, Serine/threonine-protein kinase TAO1 (Homo sapiens, UniProt Q7L7X3); type: functional
T2 sequence (Q7L7X3 whole entry): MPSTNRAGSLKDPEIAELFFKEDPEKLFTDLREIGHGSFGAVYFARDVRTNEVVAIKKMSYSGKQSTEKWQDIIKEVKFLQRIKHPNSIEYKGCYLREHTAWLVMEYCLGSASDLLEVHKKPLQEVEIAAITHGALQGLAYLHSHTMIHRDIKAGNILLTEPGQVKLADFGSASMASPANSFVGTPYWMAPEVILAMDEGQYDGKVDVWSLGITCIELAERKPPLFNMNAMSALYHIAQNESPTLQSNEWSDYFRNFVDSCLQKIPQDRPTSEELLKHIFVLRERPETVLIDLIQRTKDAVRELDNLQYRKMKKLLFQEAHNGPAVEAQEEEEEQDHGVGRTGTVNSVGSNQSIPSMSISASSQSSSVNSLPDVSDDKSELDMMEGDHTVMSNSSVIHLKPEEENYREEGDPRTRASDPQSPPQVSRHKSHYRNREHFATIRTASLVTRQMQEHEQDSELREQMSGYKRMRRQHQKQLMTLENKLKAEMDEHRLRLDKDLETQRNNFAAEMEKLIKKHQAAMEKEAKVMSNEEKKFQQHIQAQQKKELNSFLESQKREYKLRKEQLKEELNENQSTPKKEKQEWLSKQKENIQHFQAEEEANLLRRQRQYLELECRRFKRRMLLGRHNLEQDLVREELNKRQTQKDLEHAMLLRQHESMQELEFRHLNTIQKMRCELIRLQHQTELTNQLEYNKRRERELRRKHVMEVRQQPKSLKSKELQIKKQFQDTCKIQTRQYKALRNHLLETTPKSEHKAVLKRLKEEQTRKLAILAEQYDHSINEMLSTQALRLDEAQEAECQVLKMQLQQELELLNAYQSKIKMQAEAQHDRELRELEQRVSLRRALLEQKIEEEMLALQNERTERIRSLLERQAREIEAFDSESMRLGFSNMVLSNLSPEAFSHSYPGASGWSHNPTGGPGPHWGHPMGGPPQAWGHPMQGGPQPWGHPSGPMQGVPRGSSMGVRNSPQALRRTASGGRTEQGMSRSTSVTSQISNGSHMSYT

[9] = molecular target: Focal adhesion kinase 1 (Homo sapiens, UniProt Q05397); type: functional;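 note: measured as one member of a kinome panel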
[10] = molecular target: Protein disulfide-isomerase (Homo sapiens, UniProt P07237); assay: inhibition of PDI-driven insulin aggregation – biochemical, turbidity, absorbance, cherry-picked samples, dose response (AID 602350); type: functional
[11] = molecular target: Beta-lactamase (Pseudomonas aeruginosa, UniProt Q79MP6);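 note: biochemical dose-response test of metallo-beta-lactamase enzyme inhibition, read out by epi-absorbance; purified recombinant IMP-1 metallo-beta-lactamase with nitrocefin as substrate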
[12] = Luminescence Cell-Based Dose Confirmation HTS to Identify Inhibitors of Polyadenylation.; type: functional
[13] = molecular target: Beta-lactamase (Salmonella choleraesuis (strain SC-B67), UniProt Q5J463)
[14] = molecular target: 72 kDa type IV collagenase (Homo sapiens, UniProt P08253); assay: Dose Response validation of uHTS RPN11 inhibitor hits using a MMP-2 Fluorescence assay.; type: functional
[15] = mRNA 3' processing disruption, beta-gal signal increase – luminescence, S. cerevisiae SKY197-pL101, dose response (AID 2525); type: functional, cell-based
[16] = molecular target: Prothrombin (Bos taurus, UniProt P00735); assay: thrombin protease inhibitors – biochemical, fluorescence polarization, uHTS hits, dose response (AID 602369); type: functional
[17] = molecular target: 26S proteasome non-ATPase regulatory subunit 14 (Homo sapiens, UniProt O00487); assay: inhibition of proteasome subunit RPN11 – biochemical, fluorescence polarization, uHTS hits, confirmation (AID 602368); type: functional
[18] = molecular target: DNA dC->dU-editing enzyme APOBEC-3A (Homo sapiens, UniProt P31941); assay: SAR analysis of small molecule inhibitors of APOBEC3A DNA Deaminase via a fluorescence-based single-stranded DNA deaminase assay.; type: functional; conditions: read-out: IC50_Mean
[19] = molecular target: DNA dC->dU-editing enzyme APOBEC-3G (Homo sapiens, UniProt Q9HC16); assay: inhibition of APOBEC3G ssDNA deamination – biochemical, fluorescence, single-stranded DNA substrate, SAR follow-up (AID 602136); type: functional; conditions: read-out: IC50_Mean
DNA dC->dU-editing enzyme APOBEC-3G, sequence (Q9HC16 whole entry): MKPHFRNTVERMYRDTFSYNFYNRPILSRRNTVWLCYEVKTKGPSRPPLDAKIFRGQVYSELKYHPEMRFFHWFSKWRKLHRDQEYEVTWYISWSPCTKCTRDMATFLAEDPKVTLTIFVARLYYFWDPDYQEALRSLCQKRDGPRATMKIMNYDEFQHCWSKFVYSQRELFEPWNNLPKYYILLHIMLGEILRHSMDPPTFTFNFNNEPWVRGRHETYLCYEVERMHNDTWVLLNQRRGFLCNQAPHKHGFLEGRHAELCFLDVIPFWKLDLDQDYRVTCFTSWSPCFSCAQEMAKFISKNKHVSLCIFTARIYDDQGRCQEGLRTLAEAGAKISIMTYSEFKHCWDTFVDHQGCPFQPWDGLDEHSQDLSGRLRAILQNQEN

ALK tyrosine kinase receptor, sequence (Q9UM73 whole entry): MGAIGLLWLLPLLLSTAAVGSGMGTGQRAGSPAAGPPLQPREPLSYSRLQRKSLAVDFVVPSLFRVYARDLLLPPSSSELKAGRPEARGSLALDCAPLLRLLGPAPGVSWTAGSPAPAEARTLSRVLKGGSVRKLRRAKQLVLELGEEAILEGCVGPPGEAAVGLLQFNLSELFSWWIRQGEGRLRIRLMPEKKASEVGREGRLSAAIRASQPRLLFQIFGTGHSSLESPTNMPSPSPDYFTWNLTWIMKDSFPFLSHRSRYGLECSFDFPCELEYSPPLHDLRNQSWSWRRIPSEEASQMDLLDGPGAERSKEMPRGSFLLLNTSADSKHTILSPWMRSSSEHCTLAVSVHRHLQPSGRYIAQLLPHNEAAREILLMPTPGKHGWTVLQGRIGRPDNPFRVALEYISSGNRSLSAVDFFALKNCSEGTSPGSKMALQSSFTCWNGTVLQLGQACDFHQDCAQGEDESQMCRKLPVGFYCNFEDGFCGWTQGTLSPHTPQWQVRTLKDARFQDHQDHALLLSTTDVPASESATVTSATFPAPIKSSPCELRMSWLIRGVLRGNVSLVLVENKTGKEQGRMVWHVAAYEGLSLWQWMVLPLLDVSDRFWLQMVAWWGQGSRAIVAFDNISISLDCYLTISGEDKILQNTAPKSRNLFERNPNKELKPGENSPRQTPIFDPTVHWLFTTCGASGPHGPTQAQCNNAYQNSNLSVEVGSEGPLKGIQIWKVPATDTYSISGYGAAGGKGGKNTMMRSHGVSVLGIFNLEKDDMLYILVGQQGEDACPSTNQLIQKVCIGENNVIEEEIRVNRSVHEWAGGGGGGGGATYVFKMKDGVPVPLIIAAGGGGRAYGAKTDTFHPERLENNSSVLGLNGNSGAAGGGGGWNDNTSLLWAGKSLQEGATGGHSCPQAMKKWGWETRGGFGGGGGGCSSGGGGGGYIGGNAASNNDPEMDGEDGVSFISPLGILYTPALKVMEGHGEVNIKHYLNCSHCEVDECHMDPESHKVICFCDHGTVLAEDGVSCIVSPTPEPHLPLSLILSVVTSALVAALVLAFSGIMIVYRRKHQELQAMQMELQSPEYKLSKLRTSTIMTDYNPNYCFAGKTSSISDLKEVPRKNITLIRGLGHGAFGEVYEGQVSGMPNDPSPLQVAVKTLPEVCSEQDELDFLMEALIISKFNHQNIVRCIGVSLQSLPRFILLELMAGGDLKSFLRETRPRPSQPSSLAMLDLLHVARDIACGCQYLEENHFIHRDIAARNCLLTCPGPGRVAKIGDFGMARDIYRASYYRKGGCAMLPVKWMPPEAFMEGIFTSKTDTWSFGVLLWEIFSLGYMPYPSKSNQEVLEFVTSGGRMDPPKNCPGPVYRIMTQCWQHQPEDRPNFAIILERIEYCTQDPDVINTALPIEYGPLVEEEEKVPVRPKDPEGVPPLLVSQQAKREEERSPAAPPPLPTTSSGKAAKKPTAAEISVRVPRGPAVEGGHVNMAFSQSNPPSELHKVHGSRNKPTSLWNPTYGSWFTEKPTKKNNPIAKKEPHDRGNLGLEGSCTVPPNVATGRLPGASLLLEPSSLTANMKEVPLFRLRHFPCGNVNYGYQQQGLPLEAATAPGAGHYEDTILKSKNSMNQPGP
Beta-lactamase (Pseudomonas aeruginosa, UniProt Q79MP6), sequence (Q79MP6 whole entry): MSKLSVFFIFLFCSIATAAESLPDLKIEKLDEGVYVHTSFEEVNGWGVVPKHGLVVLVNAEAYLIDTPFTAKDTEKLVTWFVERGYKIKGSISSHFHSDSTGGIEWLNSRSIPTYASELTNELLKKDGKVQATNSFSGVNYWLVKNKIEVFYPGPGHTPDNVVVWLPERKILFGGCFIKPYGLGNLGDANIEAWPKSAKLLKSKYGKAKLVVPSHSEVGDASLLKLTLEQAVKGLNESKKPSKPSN
Tyrosine-protein kinase Fyn, sequence (P06241 whole entry): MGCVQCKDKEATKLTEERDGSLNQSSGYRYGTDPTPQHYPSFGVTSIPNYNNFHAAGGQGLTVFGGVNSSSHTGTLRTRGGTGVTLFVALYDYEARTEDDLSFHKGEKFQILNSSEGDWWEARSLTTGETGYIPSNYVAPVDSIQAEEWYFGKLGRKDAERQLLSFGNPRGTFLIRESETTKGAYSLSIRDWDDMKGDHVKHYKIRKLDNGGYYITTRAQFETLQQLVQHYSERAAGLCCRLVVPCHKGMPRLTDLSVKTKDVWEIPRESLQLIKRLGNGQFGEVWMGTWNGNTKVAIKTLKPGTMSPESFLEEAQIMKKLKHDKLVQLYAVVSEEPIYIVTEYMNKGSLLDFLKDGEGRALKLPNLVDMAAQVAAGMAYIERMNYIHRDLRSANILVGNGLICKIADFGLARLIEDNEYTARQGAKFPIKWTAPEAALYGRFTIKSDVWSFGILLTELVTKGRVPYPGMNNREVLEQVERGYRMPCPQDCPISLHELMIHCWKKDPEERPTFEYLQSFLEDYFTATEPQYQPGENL
Mitogen-activated protein kinase 14, sequence (Q16539 whole entry): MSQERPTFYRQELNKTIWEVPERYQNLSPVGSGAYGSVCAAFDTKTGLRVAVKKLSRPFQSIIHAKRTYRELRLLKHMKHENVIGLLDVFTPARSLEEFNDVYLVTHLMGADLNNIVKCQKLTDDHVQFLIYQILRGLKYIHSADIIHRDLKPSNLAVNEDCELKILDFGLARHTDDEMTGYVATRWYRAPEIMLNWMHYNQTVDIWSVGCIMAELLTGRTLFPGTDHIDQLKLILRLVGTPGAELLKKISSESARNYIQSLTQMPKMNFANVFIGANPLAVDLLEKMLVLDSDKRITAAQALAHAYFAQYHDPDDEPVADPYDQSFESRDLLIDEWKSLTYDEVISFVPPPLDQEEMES
Beta-lactamase (Salmonella choleraesuis (strain SC-B67), UniProt Q5J463), sequence (Q5J463 whole entry): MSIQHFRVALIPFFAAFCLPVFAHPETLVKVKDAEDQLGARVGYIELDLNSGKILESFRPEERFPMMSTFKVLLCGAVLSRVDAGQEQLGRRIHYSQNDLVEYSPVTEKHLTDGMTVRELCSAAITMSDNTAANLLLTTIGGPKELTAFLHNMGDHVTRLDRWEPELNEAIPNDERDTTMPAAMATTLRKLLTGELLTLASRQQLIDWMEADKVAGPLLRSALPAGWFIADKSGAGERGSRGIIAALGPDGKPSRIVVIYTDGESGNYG
Focal adhesion kinase 1, sequence (Q05397 whole entry): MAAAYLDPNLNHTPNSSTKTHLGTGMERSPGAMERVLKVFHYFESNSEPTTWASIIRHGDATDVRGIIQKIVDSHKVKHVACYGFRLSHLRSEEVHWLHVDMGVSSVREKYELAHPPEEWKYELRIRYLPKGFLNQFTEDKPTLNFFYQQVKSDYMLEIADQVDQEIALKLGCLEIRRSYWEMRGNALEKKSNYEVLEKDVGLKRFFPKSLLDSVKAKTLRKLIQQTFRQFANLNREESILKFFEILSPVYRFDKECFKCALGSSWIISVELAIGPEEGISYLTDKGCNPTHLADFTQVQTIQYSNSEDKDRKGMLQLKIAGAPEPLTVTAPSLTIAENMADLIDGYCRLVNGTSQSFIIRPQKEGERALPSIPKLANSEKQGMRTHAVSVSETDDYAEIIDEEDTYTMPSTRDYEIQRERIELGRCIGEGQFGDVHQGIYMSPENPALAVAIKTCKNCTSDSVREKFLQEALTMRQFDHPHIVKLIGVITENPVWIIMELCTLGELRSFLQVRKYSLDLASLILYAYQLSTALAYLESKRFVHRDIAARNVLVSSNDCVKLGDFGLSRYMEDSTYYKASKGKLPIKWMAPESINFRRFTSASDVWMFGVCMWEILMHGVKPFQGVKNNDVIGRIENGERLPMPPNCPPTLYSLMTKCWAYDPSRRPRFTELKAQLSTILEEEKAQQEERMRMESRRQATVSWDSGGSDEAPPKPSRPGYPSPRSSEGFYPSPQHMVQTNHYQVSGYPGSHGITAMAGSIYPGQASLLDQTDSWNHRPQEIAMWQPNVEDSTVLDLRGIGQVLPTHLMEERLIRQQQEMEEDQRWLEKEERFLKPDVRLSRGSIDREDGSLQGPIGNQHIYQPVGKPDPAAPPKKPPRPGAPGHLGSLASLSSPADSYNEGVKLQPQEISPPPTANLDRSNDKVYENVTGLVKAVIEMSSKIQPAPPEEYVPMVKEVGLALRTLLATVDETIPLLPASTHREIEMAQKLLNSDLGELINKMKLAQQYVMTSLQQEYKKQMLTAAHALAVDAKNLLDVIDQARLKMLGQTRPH
Tyrosine-protein kinase Lck, sequence (P06239 whole entry): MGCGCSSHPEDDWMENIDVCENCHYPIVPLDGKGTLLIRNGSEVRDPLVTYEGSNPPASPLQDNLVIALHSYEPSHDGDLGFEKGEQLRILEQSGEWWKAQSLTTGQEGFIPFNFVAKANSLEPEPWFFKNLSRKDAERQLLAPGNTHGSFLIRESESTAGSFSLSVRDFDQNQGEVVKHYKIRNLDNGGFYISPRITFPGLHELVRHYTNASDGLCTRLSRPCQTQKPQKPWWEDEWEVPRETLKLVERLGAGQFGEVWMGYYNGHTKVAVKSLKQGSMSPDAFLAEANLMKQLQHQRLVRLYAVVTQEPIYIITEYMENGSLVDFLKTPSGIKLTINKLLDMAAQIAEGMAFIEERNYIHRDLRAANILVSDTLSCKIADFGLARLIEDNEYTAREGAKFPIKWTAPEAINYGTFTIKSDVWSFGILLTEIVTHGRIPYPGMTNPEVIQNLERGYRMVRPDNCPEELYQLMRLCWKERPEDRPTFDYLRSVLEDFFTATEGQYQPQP

## Cn1cc(C(CC(=O)c2ccc(C3CCCCC3)cc2)C(=O)O)c2ccccc21 (centres undefined)
[1]
  IC50: 69.6 µM (active)

## CC(C)CC(CO)NC(=O)c1cccc(-n2nc(C(C)(C)C)cc2NC(=O)Nc2cccc3ccccc23)c1 (centres undefined)
[2]
  Ki: > 6.31 µM (inactive)
[3]
  Ki: > 6.31 µM (inactive)
[4]
  Ki: > 6.31 µM (inactive)
[5]
  Ki: > 7.94 µM (inactive)
[6]
  Ki: > 6.31 µM (inactive)
[7]
  Ki: 631 nM (active)
[8]
  Ki: > 6.31 µM (inactive)
[9]
  Ki: > 6.31 µM (inactive)

## CCOC(=O)c1c(CNCCN(CC)CC)n(C)c2cc(Br)c(OC)cc12
[10]
  AC50: 376 nM (active)

## COc1cc(/C=C2/SC(=S)N(Cc3ccccc3)C2=O)cc(OC)c1O
[11]
  IC50: > 59.6 µM (inactive)
[12]
  EC50: 27.8 µM (inconclusive)
[13]
  IC50: > 59.6 µM (inactive)
[14]
  IC50: > 100 µM (inactive)
[15]
  EC50: 31.9 µM (active)
[16]
  IC50: 2.9 µM (active)
[17]
  IC50: 2.36 µM (active)

## CC(=O)c1c(C)[nH]c(C(=O)CN(C)CC(=O)Nc2ccc(F)c(F)c2F)c1C
[18]
  IC50: > 99 µM (inactive)
[19]
  IC50: > 99 µM (inactive)
